These results are taken from the OligoGym collection.

After the bases stand the sugars from the 5' end (letter, count) and the backbone: PS all phosphorothioate, else s phosphorothioate and o phosphodiester by linkage. Methylation of C is not given here. e = 2'-O-(2-methoxyethyl) (MOE); k = constrained ethyl (cEt); d = 2'-deoxy (DNA); m = 2'-O-methyl

This data set has as its target HSD17B13. As to conditions: ASO, HepaRG.

For “GTATCTTATAAGACTA (sugars kkdddddddddkekek, PS)”, the target mRNA inhibition (1 µM) is 61%.
The sequence GTATTCCATAAAGCTG (sugars k3 d10 k3, PS) had a target mRNA inhibition (1 µM) of 10%.
Consider “GTATTCCATCTATCAG (sugars k3 d9 k3 e1, PS)”, for which the target mRNA inhibition (1 µM) is 51%.
Still for that read-out and setting: in the case of GTATTTACTTTTAGGG (sugars k3 d10 k3, PS) it was 61%.
On the same count and under the same terms, the figure for “GTATUCCATCTATCAG (sugars k3 d1 m1 d8 k3, PS)” is 41%.
Take “GTCACCTTTCATAATG (sugars k3 d9 k3 e1, PS)”: the target mRNA inhibition (1 µM) stood at 21%.
The same measure, in the same setting: the figure for GTCACCTTTCATAATG (sugars k3 d10 k3, PS) is 45%.
In the case of GTCAGTAGAGAGCATA (sugars k3 d10 k3, PS), the target mRNA inhibition was 0% (0.02 µM); 0% (0.078 µM); 27% (0.313 µM); 85% (1 µM); 78% (1.25 µM); 74% (5 µM).
GTCCAAAAGTGTCCTC (sugars k3 d10 k3, PS) returned a target mRNA inhibition (1 µM) of 35%.
On the same count and under the same terms, the figure for GTCCACTTTTGGTGGA (sugars k3 d10 k3, PS) is 14%.
In the case of GTCCTTTGTATTTCGC (sugars k3 d10 k3, PS), the target mRNA inhibition (1 µM) stood at 45%.
The sequence “GTCGGTCACCTTTCAT (sugars k3 d9 k3 e1, PS)” yielded a target mRNA inhibition (1 µM) of 68%.
Where the note is “1 µM”, GTCTAAACATCTCTGG (sugars k3 d10 k3, PS) returned a target mRNA inhibition of 58%.
On the same count and under the same terms, the figure for “GTCTACCTCTAAGTTA (sugars kkdddddddddkekek, PS)” is 15%.
In the case of GTCTGCCTGCCTATTC (sugars k3 d10 k3, PS), where the note is “1 µM”, the target mRNA inhibition is 53%.
“GTGCATCTTAAGATAC (sugars k3 d1 m1 d8 k3, PS)” displayed a target mRNA inhibition (1 µM) of 40%.
On to “GTGCCAAACCAATGTT (sugars k3 d9 k3 e1, PS)”, for which, where the note is “1 µM”, the target mRNA inhibition is 56%.
As for GTGCTAAGTAGTAATT (sugars k3 d10 k3, PS), under “1 µM”, the target mRNA inhibition turned out to be 58%.
Turning to GTGGATTACATACAAG (sugars k3 d10 k3, PS), the target mRNA inhibition (1 µM) turned out to be 57%.
As to “GTGGCATGGCTACAGA (sugars k3 d1 m1 d8 k3, PS)”, the target mRNA inhibition (1 µM) is 49%.
On to GTGTAAATAAGTTCTC (sugars k3 d10 k3, PS), for which the target mRNA inhibition (1 µM) is 61%.
As to GTTAAAACTTCATTCC (sugars k3 d10 k3, PS), the target mRNA inhibition (1 µM) came out at 5%.
With GTTAACCTGCAGCAGA (sugars k3 d10 k3, PS), the target mRNA inhibition (1 µM) was 51%.
For GTTACATCACCCACTT (sugars k3 d10 k3, PS), the target mRNA inhibition (1 µM) was 41%.
Sequence “GTTAGAATAGTCTTCA (sugars k3 d1 m1 d8 k3, PS)” registered a target mRNA inhibition (1 µM) of 42%.
As to GTTAGCAAAACACTTG (sugars k3 d10 k3, PS), the target mRNA inhibition by setting is: (0.02 µM) 1%; (0.078 µM) 15%; (0.313 µM) 44%; (1 µM) 71%; (1.25 µM) 68%; (5 µM) 81%.
With “GTTAGTATAGTTATCT (sugars k3 d1 m1 d8 k3, PS)”, where the note is “1 µM”, the target mRNA inhibition was determined as 52%.
Where the note is “1 µM”, “GTTAGTATAGTTATCT (sugars k3 d9 k3 e1, PS)” yielded a target mRNA inhibition of 71%.
On to GTTAGTATAGTTATCT (sugars k3 d10 k3, PS), for which the target mRNA inhibition is, setting by setting: (0.02 µM) 0%; (0.078 µM) 17%; (0.313 µM) 40%; (1 µM) 66%; (1.25 µM) 74%; (5 µM) 86%.
As for GTTATTCTCTTGACAA (sugars k3 d10 k3, PS), the target mRNA inhibition (1 µM) was 42%.
GTTCTGATGTCAGACC (sugars k3 d10 k3, PS): for the setting “1 µM”, the target mRNA inhibition was 55%.
As for GTTCTTGTTGATATTC (sugars k3 d10 k3, PS), the target mRNA inhibition reads like this: (0.02 µM) 35%; (0.078 µM) 51%; (0.313 µM) 77%; (1 µM) 84%; (1.25 µM) 92%; (5 µM) 96%.
“GTTCTTGTTGATATTC (sugars kkdddddddddkekek, PS)”: the target mRNA inhibition (1 µM) came out at 66%.
“GTTCUTGTTGATATTC (sugars k3 d1 m1 d8 k3, PS)” displayed a target mRNA inhibition (1 µM) of 70%.
Regarding GTTGACCTCAAATGTC (sugars k3 d10 k3, PS), the target mRNA inhibition (1 µM) was 0%.
As for GTTGAGTAGTGTAAGC (sugars k3 d10 k3, PS), the target mRNA inhibition (1 µM) was 53%.
With “GTTGCACCGTTTTGGG (sugars k3 d9 k3 e1, PS)”, where the note is “1 µM”, the target mRNA inhibition was 45%.
Still for that read-out and setting: in the case of GTTGCACCGTTTTGGG (sugars k3 d10 k3, PS) it was 56%.
As for GTTGTTAATGTAGTGT (sugars k3 d10 k3, PS), the target mRNA inhibition runs as follows: (0.02 µM) 0%; (0.078 µM) 18%; (0.313 µM) 42%; (1 µM) 77%; (1.25 µM) 67%; (5 µM) 90%.
Take GTTTAACTTTCCTCCG (sugars k3 d10 k3, PS): the target mRNA inhibition (1 µM) came out at 30%.
Where the note is “1 µM”, GTTTACAAGTAAGAAC (sugars k3 d10 k3, PS) showed a target mRNA inhibition of 42%.
Still for that read-out and setting: the figure for GTTTAGAAGTCAAACG (sugars k3 d10 k3, PS) is 0%.
The sequence GTTTAGCAATTTAGCA (sugars k3 d10 k3, PS) yielded a target mRNA inhibition (1 µM) of 50%.
For GTTTTATAACTGAGCT (sugars k3 d10 k3, PS), the target mRNA inhibition (0.02 µM) turned out to be 16%; the target mRNA inhibition (0.078 µM) was found to be 29%; the target mRNA inhibition (0.313 µM) came to 53%; the target mRNA inhibition (1 µM) is 84%; the target mRNA inhibition (1.25 µM) came out at 84%; the target mRNA inhibition (5 µM) is 85%.
As to GTTTTGATACCAGTTT (sugars k3 d10 k3, PS), where the note is “1 µM”, the target mRNA inhibition worked out at 67%.
Regarding “GTTTTGGGCTAATGAA (sugars k3 d9 k3 e1, PS)”, the target mRNA inhibition (1 µM) was found to be 47%.
Sequence GTTTTGGGCTAATGAA (sugars k3 d10 k3, PS) came in with a target mRNA inhibition (1 µM) of 54%.
With “GTTTTGGGCTAATGAA (sugars kkdddddddddkekek, PS)”, the target mRNA inhibition (1 µM) worked out at 42%.
In turn, GTTTTTCTCTTGACAA (sugars k3 d10 k3, PS) displayed a target mRNA inhibition (1 µM) of 59%.
Sequence “TAAAATAGAGTCGGTC (sugars kkdddddddddkekek, PS)” displayed a target mRNA inhibition (1 µM) of 68%.
Regarding “TAAACATCTCTGGGAC (sugars k3 d1 m1 d8 k3, PS)”, the target mRNA inhibition (1 µM) came out at 49%.
In turn, TAAACCCTGGAGCAGC (sugars k3 d10 k3, PS) came in with a target mRNA inhibition (1 µM) of 66%.
As to “TAAACCTTCCCTGTGT (sugars k3 d9 k3 e1, PS)”, the target mRNA inhibition (1 µM) was 23%.
Still for that read-out and setting: in the case of TAAACCTTCCCTGTGT (sugars k3 d10 k3, PS) it was 17%.
Consider TAAAGCAGGCTACTTT (sugars k3 d10 k3, PS), for which the target mRNA inhibition (1 µM) turned out to be 9%.
As for TAAAGCTGCCTGCTGA (sugars k3 d10 k3, PS), the target mRNA inhibition (1 µM) was 44%.
For TAAAGGTGGGATAAAC (sugars k3 d10 k3, PS), the target mRNA inhibition (1 µM) is 0%.
In the case of TAAAGGTTTCTGTTGC (sugars k3 d10 k3, PS), the target mRNA inhibition is, setting by setting: (0.02 µM) 0%; (0.078 µM) 9%; (0.313 µM) 32%; (1 µM) 66%; (1.25 µM) 67%; (5 µM) 74%.
Sequence TAAAGTGCTAAGTAGT (sugars k3 d10 k3, PS) had a target mRNA inhibition (1 µM) of 50%.
Still for that read-out and setting: in the case of TAACCAATTATATGAG (sugars k3 d10 k3, PS) it was 0%; in that of TAACTACAAGAGGTTA (sugars k3 d10 k3, PS), 22%; in that of TAACTGAGTTATTCTC (sugars k3 d10 k3, PS), 41%.
Under “1 µM”, “TAAGATACCCAGGTTG (sugars k3 d9 k3 e1, PS)” registered a target mRNA inhibition of 58%.
Same read-out and setting: in the case of TAAGATGTCCAGGCAT (sugars k3 d10 k3, PS) it was 17%; in that of “TAAGCAGAATTGTGAA (sugars k3 d1 m1 d8 k3, PS)”, 26%; in that of “TAAGCAGAATTGTGAA (sugars kkdddddddddkekek, PS)”, 29%.
Same read-out and setting: in the case of “TAAGCTGAGAGTTCTA (sugars k3 d9 k3 e1, PS)” it was 48%; in that of TAAGTGTAAGAGACAT (sugars k3 d10 k3, PS), 63%.
TAATAATGGGCAGAGC (sugars k3 d10 k3, PS) registered a target mRNA inhibition (1 µM) of 30%.
The sequence “TAATACATTAGCAAGC (sugars k3 d9 k3 e1, PS)” yielded a target mRNA inhibition (1 µM) of 35%.
TAATATTGAGGCACTG (sugars k3 d10 k3, PS) displayed a target mRNA inhibition (1 µM) of 33%.
TAATGGTAAACTGTAT (sugars k3 d10 k3, PS) displayed a target mRNA inhibition (1 µM) of 32%.
For the sequence TAATTACAACCTGGTT (sugars k3 d10 k3, PS), the target mRNA inhibition (1 µM) stood at 52%.
As to TAATTTTTGAGCCTAA (sugars k3 d10 k3, PS), the target mRNA inhibition (1 µM) was determined as 41%.
For the setting “1 µM”, TACACTAATATTGAGG (sugars k3 d10 k3, PS) registered a target mRNA inhibition of 30%.
Where the note is “1 µM”, TACACTGACAACCCTT (sugars k3 d10 k3, PS) returned a target mRNA inhibition of 56%.
“TACAGATTGGAATGCT (sugars k3 d1 m1 d8 k3, PS)” showed a target mRNA inhibition (1 µM) of 60%.
On to TACAGATTGGAATGCT (sugars k3 d10 k3, PS), for which the target mRNA inhibition (1 µM) came to 46%.
Same read-out and setting: in the case of TACAGTAGGCAGTTTC (sugars k3 d10 k3, PS) it was 60%; in that of TACATATCTTACTCTG (sugars k3 d10 k3, PS), 40%.
TACCACATACGCATGC (sugars k3 d10 k3, PS) came in with a target mRNA inhibition (1 µM) of 33%.
